Results reported in a melting point compilation (Tetko et al.; mined from patent text by program, amines drawn as free bases though some values may be those of a salt).

`CCOC(=O)c1cn(C)c2nc3cc(N4CC(N(C)C)C4)c(F)cc3cc2c1=O` gave a melting point of 224 °C.
Compound `COc1ccc2cc([C@H](C)C(=O)OCC3(CO[N+](=O)[O-])COCOC3)ccc2c1` has a melting point of 98 °C.
Work on `O=C1CC2(CCCCC2Cc2ccccc2)SCCN1` (stereo not given) yielded a melting point of 130 to 135 °C.
For `CNC1CCN(c2cc3c(cc2F)c(=O)c(C(=O)O)c2n3C(C)S2)C1` (stereo not given), the melting point was 213 to 216 °C.
With `ClC1(c2cccs2)CC1c1ccccc1` (stereo not given) the melting point was 61 to 63 °C.
`CCOC(=O)c1c2ccc(Cl)cc2c(-c2ccccc2)n1CCN` showed a melting point of 84 to 86 °C.
With `Cc1cc2cc(CN3CCCCCC3)cnc2cc1NC(=O)c1ccc(-c2cc3ccccc3o2)cc1` the melting point was 207 °C.
`CCOC(=O)CCc1cn(Cc2ccc(OC)c(OCc3nc(-c4ccccc4)oc3C)c2)nc1OCC` gave a melting point of 109 to 110 °C.
`CCOC(=O)N1CC[C@@H]2CC(=O)c3cc([N+](=O)[O-])ccc3C[C@H]2C1` (relative stereo) showed a melting point of 112 to 114 °C.
`CCOc1ccc(-c2nnc(Nc3ccc(Br)c(Cl)c3)s2)cc1` showed a melting point of 225 to 226 °C.
Work on `Cc1noc(NS(=O)(=O)c2ccsc2C(=O)Nc2cccc(C(=O)O)c2)c1Br` yielded a melting point of 183 to 185 °C.
With `CCOC(=O)C(=CNC1CC1)C(=O)c1cc(F)c(N2CCC(NC(C)=O)C2)nc1Cl` (stereo not given) the melting point was 71 to 75 °C.
Compound `CS(=O)(=O)On1nnc2ccccc2c1=O` has a melting point of 132 to 134 °C.
`CN(C)CCc1c(CC(C#N)(c2ccccc2)c2ccccc2)c2ccccc2n1C` showed a melting point of 133 to 136 °C.
Compound `CC(C(=O)Oc1cc(=O)n(-c2ccccc2)c2ncccc12)c1ccccc1` (stereo not given) has a melting point of 166 to 168 °C.
In the case of `CCOC(=O)c1cn(C2CC2)c2nc(SCC)ncc2c1=O`, the melting point is reported as 138 °C.
For `COc1ccc(/C(C)=C/c2ccc(C(=O)O)cc2)cc1C1(C)CCCCC1`, the melting point was 175 to 176 °C.
`NC(=O)CCCCC1(c2ccccc2)CC(O)=CC(=O)O1` (stereo not given) gave a melting point of 173 to 174 °C.
For `COC(=O)CN1CCC[C@H]1C(=O)N[C@@H](Cc1ccccc1)C(=O)N1CCC[C@H]1C(=O)O`, the melting point was 145 to 148 °C.
For `Cc1ccc(N=C2SCS2)cc1`, the melting point was 54.5 to 55 °C.
With `CSc1nc2nsc(N)c2s1` the melting point was 160 to 166 °C.
`O=C1Cc2c(Oc3ccccc3)ccc(Cl)c2N1` gave a melting point of 200 to 202 °C.
`COC(=O)NCCC1CN=C(c2cc3cccc(N(C)S(=O)(=O)c4cccs4)c3[nH]2)S1` (stereo not given) showed a melting point of 201 to 203 °C.
For `CC(=O)c1cc(C=O)c2occc2c1`, the melting point was 91 to 93 °C.
For `CC(=O)c1nc2cc(Cl)ccc2cc1OCc1ccccc1`, the melting point was 76 to 77 °C.
Work on `CC(C)N1Cc2cc(O)ccc2N(CCN2CC=C(c3c[nH]c4cc(F)ccc34)CC2)S1(=O)=O` yielded a melting point of 80 to 82 °C.
For `COc1ccccc1C1(C(C)(C)O)CCN(C)CC1`, the melting point was 110 to 111 °C.
For `CC1CN(C(=O)CCl)c2ccccc21` (stereo not given), the melting point was 78 to 79 °C.
In the case of `CCOC(=O)CC(NCc1ccccc1)=C(C(C)=O)C(=O)OCC`, the melting point is reported as 87 to 88 °C.
For `CCc1nn(CC(=O)NN)c(CC)c1Oc1cc(Cl)cc(Cl)c1`, the melting point was over 250 °C.
In the case of `CC(=O)SCC(Cc1ccccc1)C(=O)Nc1cc(C(=O)O)ccc1O` (stereo not given), the melting point is reported as 202 to 206 °C.
`C=CCNc1nc2c(c(N3CCN(C)CC3)n1)CCCN2CC=C` gave a melting point of 81 °C.
Work on `Cc1ccc2c(n1)C(=O)C(N)=C(Cl)C2=O` yielded a melting point of 270 °C.
`COc1ccc(C2(C#Cc3cccc(NS(C)(=O)=O)c3)CCCC(=O)C2)cc1OC1CCCC1` (stereo not given) gave a melting point of 59 to 62 °C.
`CCCOC(=O)c1ccc(C#CC2(O)CN3CCC2CC3)cc1O` (stereo not given) showed a melting point of 173 to 175 °C.
`CC(C(=O)O)c1ccc2c(c1)CCc1ccccc1S2` (stereo not given) gave a melting point of 103 to 104 °C.
In the case of `N#CSc1ccc(N)c(C#N)c1`, the melting point is reported as 120 to 121 °C.
For `CCCCCCCCCCCCOCCCNC(=O)c1cc(OCC(=O)O)c2ccccc2c1O`, the melting point was 150 °C.
With `Cc1cc(OCCCNCCC(N)=O)ccc1Cc1c(OC2OC(CO)C(O)C(O)C2O)n[nH]c1C(C)C` (stereo not given) the melting point was 191 to 193 °C.
`O=C(NS(=O)(=O)c1ccc(Cl)cc1)C1=NN(c2ccc(Cl)cc2)C(c2ccccc2)C1` (stereo not given) gave a melting point of 226 to 229 °C.
`c1ccc2nc(N3CCNCC3)ncc2c1` gave a melting point of 64 to 66 °C.
`CC1(C)CCC(C)(C)c2cc(COc3cccc(C(=O)O)c3-c3ccc(CCO)cc3)ccc21` showed a melting point of 201 to 203 °C.
For `O=C1c2ccccc2C(=O)N1OCCCN1CCN(c2cccc(Cl)c2)CC1`, the melting point was 140 to 142 °C.
For `O=C1c2c(c(=O)n3nc(-c4ccccc4)cc3n2Cc2ccccc2)CN1C1CCCCC1`, the melting point was 276 to 278 °C.
In the case of `CCCCn1c(=O)c2c(ncn2S(=O)(=O)CC23CCC(CC2=O)C3(C)C)n(CCCC)c1=O` (stereo not given), the melting point is reported as 55 to 56 °C.
Work on `O=C(NC1CCCC1)c1ccc(-c2ccc3c(c2)CCN(CCN2CCCC2)C3=O)cc1` yielded a melting point of 258 to 260 °C.
Work on `CC12CCC(CC1=O)C(C)(C)O2` (stereo not given) yielded a melting point of 40 to 48 °C.
With `COP(=O)(OC)[C@@H](O)[C@H](CC1CCCCC1)NC(=O)[C@H](CC(C)C)NC(=O)CCc1ccccc1` the melting point was 157 °C.
Work on `CCCCc1cc(=O)c(C(=O)OCC)cn1Cc1ccc(-c2ccccc2-c2nnn[nH]2)cc1` yielded a melting point of 119 to 120 °C.
For `O=C1NCCc2ccc(OCCCCN3CCN(c4cccc(Cl)c4Cl)CC3)nc2N1`, the melting point was 197 to 199 °C.
